Laboratory results reported in ChEMBL document CHEMBL1201862, “PubChem BioAssay data set” (2004).
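Assay format: 96-well plates, 48-hour exposure. GI50 marks 50% less growth.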 Active and inactive are the calls of the source. No stated cut-off is given here; in the data, active = GI50 up to about 1.1 µM and inactive = higher.

Assays:
Assay in all cases: NCI-60 cell line screen, 48 h
NCI-H226 = test system: NCI-H226
SR = test system: SR
SF-539 = test system: SF-539
786-0 = test system: 786-0
HT-29 = test system: HT-29
HCC 2998 = test system: HCC 2998
LOX IMVI = test system: LOX IMVI
SW-620 = test system: SW-620
CCRF-CEM = test system: CCRF-CEM
RXF 393 = test system: RXF 393
EKVX = test system: EKVX
HOP-62 = test system: HOP-62
NCI/ADR-RES = test system: NCI/ADR-RES
SK-MEL-28 = test system: SK-MEL-28
NCI-H522 = test system: NCI-H522
MDA-N = test system: MDA-N
COLO 205 = test system: COLO 205
SF-268 = test system: SF-268
SN12C = test system: SN12C
K562 = test system: K562

Row | Structure (SMILES) | GI50 (NCI-H226) | GI50 (SR) | GI50 (SF-539) | GI50 (786-0) | GI50 (HT-29) | GI50 (HCC 2998) | GI50 (LOX IMVI) | GI50 (SW-620) | GI50 (CCRF-CEM) | GI50 (RXF 393) | GI50 (EKVX) | GI50 (HOP-62) | GI50 (NCI/ADR-RES) | GI50 (SK-MEL-28) | GI50 (NCI-H522) | GI50 (MDA-N) | GI50 (COLO 205) | GI50 (SF-268) | GI50 (SN12C) | GI50 (K562)
1 | C/C=C/COc1cc(NC(=S)OC(C)C)ccc1Cl.C/C=C\COc1cc(NC(=S)OC(C)C)ccc1Cl | 17.5 µM (inactive) | 16.8 µM (inactive) | 19.8 µM (inactive) | 17.3 µM (inactive) | 15.3 µM (inactive) | 16.1 µM (inactive) | 19.5 µM (inactive) | 17.1 µM (inactive) | 25.3 µM (inactive) | 14.9 µM (inactive) | 12.6 µM (inactive) | 20 µM (inactive) | 16 µM (inactive) | 17.6 µM (inactive) | 14.1 µM (inactive) | 16.1 µM (inactive) | 17.6 µM (inactive) | 17.7 µM (inactive) | 14.2 µM (inactive) | –
2 | CCSc1cc2c(cc1O)CC[C@@H]1[C@@H]2CC[C@]2(C)[C@@H](O)CC[C@@H]12 | 15 µM (inactive) | 4.88 µM (inactive) | 15.8 µM (inactive) | 12.2 µM (inactive) | 10.8 µM (inactive) | 13.9 µM (inactive) | 10.8 µM (inactive) | 3.47 µM (inactive) | 10.1 µM (inactive) | 21.5 µM (inactive) | – | 15.7 µM (inactive) | 5.18 µM (inactive) | 14.2 µM (inactive) | 6.61 µM (inactive) | 2.67 µM (inactive) | 18.3 µM (inactive) | 29 µM (inactive) | 17.7 µM (inactive) | 4.12 µM (inactive)
3 | CC(=O)O[C@H]1C(=O)[C@@]2(C)[C@H]([C@H](OC(=O)c3ccccc3)[C@]3(O)C[C@H](OC(=O)[C@H](OC(=O)OCCC(O)CO)[C@@H](NC(=O)c4ccccc4)c4ccccc4)C(C)=C1C3(C)C)[C@]1(OC(C)=O)CO[C@@H]1C[C@@H]2O (stereo not given in full) | < 0.01 µM (active) | < 0.01 µM (active) | < 0.01 µM (active) | 0.0105 µM (active) | < 0.01 µM (active) | < 0.01 µM (active) | < 0.01 µM (active) | < 0.01 µM (active) | < 0.01 µM (active) | < 0.037 µM (active) | 0.037 µM (active) | < 0.01 µM (active) | 3.56 µM (inactive) | – | < 0.01 µM (active) | < 0.01 µM (active) | < 0.01 µM (active) | < 0.0111 µM (active) | < 0.01 µM (active) | < 0.01 µM (active)
4 | O=C(NNC(=O)c1ccccc1O)c1cccc(Br)c1 | 23.2 µM (inactive) | 12.9 µM (inactive) | > 70 µM (inactive) | 44.9 µM (inactive) | 43 µM (inactive) | 17.7 µM (inactive) | 15.2 µM (inactive) | 35 µM (inactive) | 0.512 µM (active) | > 100 µM (inactive) | 23.6 µM (inactive) | 56.8 µM (inactive) | 21.1 µM (inactive) | > 91.8 µM (inactive) | 6.25 µM (inactive) | > 57.5 µM (inactive) | 38.7 µM (inactive) | 24.9 µM (inactive) | 98.9 µM (inactive) | 46.7 µM (inactive)
5 | O/N=C/C1c2ccccc2-c2ccccc21 | 15 µM (inactive) | 23.2 µM (inactive) | 16.2 µM (inactive) | 3.7 µM (inactive) | 14.8 µM (inactive) | 15.9 µM (inactive) | 23 µM (inactive) | 16.6 µM (inactive) | 19.5 µM (inactive) | 19.5 µM (inactive) | 13.6 µM (inactive) | 17.9 µM (inactive) | 16.8 µM (inactive) | 15.7 µM (inactive) | 16.9 µM (inactive) | 14.2 µM (inactive) | 16.6 µM (inactive) | 15.3 µM (inactive) | 16.4 µM (inactive) | 29.9 µM (inactive)
6 | C[C@H]1[C@H](C)CC[C@]2(C(=O)OC3OC(CO)C(O)C(O)C3O)CC[C@]3(C)C(=CC[C@@H]4[C@@]5(C)C[C@H]6OC(=O)c7cc(O)c(O)c(O)c7-c7c(cc(O)c(O)c7O)C(=O)O[C@@H]6C(CO)(CO)[C@@H]5CC[C@]43C)[C@H]12 (stereo not given in full) | > 91.8 µM (inactive) | 27 µM (inactive) | > 100 µM (inactive) | 19.5 µM (inactive) | 24.1 µM (inactive) | 82.4 µM (inactive) | 16.4 µM (inactive) | 37.6 µM (inactive) | 24.5 µM (inactive) | > 100 µM (inactive) | > 100 µM (inactive) | > 100 µM (inactive) | > 100 µM (inactive) | > 100 µM (inactive) | 16.6 µM (inactive) | 25.5 µM (inactive) | > 100 µM (inactive) | > 69.8 µM (inactive) | 58.3 µM (inactive) | 49.3 µM (inactive)
7 | COc1cc2c(=O)cnoc2cc1O | > 100 µM (inactive) | > 100 µM (inactive) | > 100 µM (inactive) | > 100 µM (inactive) | > 100 µM (inactive) | > 100 µM (inactive) | – | > 100 µM (inactive) | > 100 µM (inactive) | > 100 µM (inactive) | > 100 µM (inactive) | – | > 100 µM (inactive) | > 100 µM (inactive) | > 100 µM (inactive) | > 100 µM (inactive) | > 100 µM (inactive) | > 100 µM (inactive) | > 100 µM (inactive) | > 100 µM (inactive)
8 | Cc1cc2c(c3oc(C(O)(CO)C4CO4)cc(=O)c13)C(=O)c1c(O)cccc1C2=O (stereo not given) | 0.00237 µM (active) | 0.000213 µM (active) | 0.000662 µM (active) | 0.000439 µM (active) | 0.00104 µM (active) | 0.00131 µM (active) | 0.000356 µM (active) | 0.000377 µM (active) | 4.14e-05 µM (active) | 0.00125 µM (active) | 0.0023 µM (active) | 0.00147 µM (active) | 0.00129 µM (active) | 0.00219 µM (active) | 0.0012 µM (active) | 0.00131 µM (active) | 0.00163 µM (active) | 0.00156 µM (active) | 0.000674 µM (active) | 0.000982 µM (active)
9 | CCCc1cc(=O)oc2c3c(c4c(c12)OC(C)(C)C=C4)O[C@@H](C)[C@H](C)C3=O | 18.2 µM (inactive) | 10.2 µM (inactive) | 17.7 µM (inactive) | 16.9 µM (inactive) | 8.71 µM (inactive) | 15.3 µM (inactive) | 18.7 µM (inactive) | 13.4 µM (inactive) | 15.1 µM (inactive) | > 10 µM (inactive) | 12.2 µM (inactive) | 18.5 µM (inactive) | 12.5 µM (inactive) | 13 µM (inactive) | 13.6 µM (inactive) | 17.3 µM (inactive) | 18.6 µM (inactive) | 17.1 µM (inactive) | 18.7 µM (inactive) | 6.46 µM (inactive)
10 | COc1ccc(N2C(=O)/C(=C\c3cc(OC)c(OC)c(OC)c3)S(=O)(=O)C2c2ccccc2)cc1 (stereo not given) | 30.8 µM (inactive) | 11 µM (inactive) | 37.9 µM (inactive) | 43.5 µM (inactive) | – | 89.3 µM (inactive) | 20 µM (inactive) | 48.6 µM (inactive) | 39.2 µM (inactive) | 15.7 µM (inactive) | – | 48.8 µM (inactive) | 17.2 µM (inactive) | 50.7 µM (inactive) | 23.1 µM (inactive) | 13.9 µM (inactive) | 4.39 µM (inactive) | 52 µM (inactive) | > 100 µM (inactive) | 12.7 µM (inactive)
11 | CC(=O)NC(Cc1c[nH]cn1)C(=O)N1CCCC1C(N)=O (stereo not given) | > 100 µM (inactive) | > 100 µM (inactive) | – | > 100 µM (inactive) | > 100 µM (inactive) | > 100 µM (inactive) | > 100 µM (inactive) | > 100 µM (inactive) | > 100 µM (inactive) | > 100 µM (inactive) | > 100 µM (inactive) | > 100 µM (inactive) | > 100 µM (inactive) | > 100 µM (inactive) | > 100 µM (inactive) | > 100 µM (inactive) | > 100 µM (inactive) | > 100 µM (inactive) | > 100 µM (inactive) | > 100 µM (inactive)
12 | N#C/C=C1\C=CC(O)C(O)C1OC1OC(CO)C(O)C(O)C1O (stereo not given) | – | > 10 µM (inactive) | > 100 µM (inactive) | > 100 µM (inactive) | > 100 µM (inactive) | > 100 µM (inactive) | > 100 µM (inactive) | > 100 µM (inactive) | > 100 µM (inactive) | > 100 µM (inactive) | > 100 µM (inactive) | > 100 µM (inactive) | > 100 µM (inactive) | > 100 µM (inactive) | > 100 µM (inactive) | > 100 µM (inactive) | > 100 µM (inactive) | > 100 µM (inactive) | > 100 µM (inactive) | > 100 µM (inactive)
13 | N=C(N)c1ccc(/N=N\c2c(O)ccc3cc4c(/N=N\c5ccc(C(=N)N)cc5)c(O)ccc4cc23)cc1 | > 100 µM (inactive) | 26.6 µM (inactive) | 94.8 µM (inactive) | 49 µM (inactive) | 75.9 µM (inactive) | > 100 µM (inactive) | – | 87.1 µM (inactive) | 37.2 µM (inactive) | > 100 µM (inactive) | > 100 µM (inactive) | 45.4 µM (inactive) | > 100 µM (inactive) | > 100 µM (inactive) | > 100 µM (inactive) | > 100 µM (inactive) | > 100 µM (inactive) | 95.3 µM (inactive) | > 100 µM (inactive) | 31.2 µM (inactive)
